Test [1] has as its target Gastrin/cholecystokinin type B receptor (Oryctolagus cuniculus). In words: In vitro inhibition of gastrin-induced [Ca2+] cytosolic elevation in isolated rabbit parietal cells.
Test [2] addresses Gastrin/cholecystokinin type B receptor (Cavia porcellus). Nature of the test: Inhibition of binding of [3H]N-Me-N-Leu-CCK-8 to cholecystokinin type B receptor in guinea pig brain cortex.

The term IC50 denotes the point on the concentration scale where inhibition reaches its midpoint. A lower IC50 goes with inhibition by little substance. Take `O=C(CCC(NC(=O)c1cc(Cl)cc(Cl)c1)C(=O)N1CCC2(CCCC2)CC1)NC(Cc1c[nH]c2ccccc12)C(=O)O` (centres undefined) [2-[5-(8-Aza-spiro[4.5]dec-8-yl)-4-(3,5-dichloro-benzoylamino)-5-oxo-pentanoylamino]-3-(1H-indol-3-yl)-propionic acid]: the IC50 in test [1] is 12 nM; in test [2], 49 nM.

In the case of `O=C(CCC(NC(=O)c1cc(Cl)cc(Cl)c1)C(=O)N1CCC2(CCCC2)CC1)NC(Cc1ccc(O)cc1)C(=O)O` (centres undefined) [2-[5-(8-Aza-spiro[4.5]dec-8-yl)-4-(3,5-dichloro-benzoylamino)-5-oxo-pentanoylamino]-3-(4-hydroxy-phenyl)-propionic acid], the IC50 was 173 nM in test [1] and 320 nM in test [2].

As to `O=C(CC(NC(=O)CCC(NC(=O)c1cc(Cl)cc(Cl)c1)C(=O)N1CCC2(CCCC2)CC1)C(=O)O)NCc1ccccc1` (centres undefined) [2-[5-(8-Aza-spiro[4.5]dec-8-yl)-4-(3,5-dichloro-benzoylamino)-5-oxo-pentanoylamino]-N-benzyl-succinamic acid], the figures for the IC50 in test [1] and in test [2] were 76 nM and 385 nM, respectively.

On to `O=C(CCC(NC(=O)c1cc(Cl)cc(Cl)c1)C(=O)N1CCC2(CCCC2)CC1)Nc1ccccc1C(=O)O` (centres undefined) [2-[5-(8-Aza-spiro[4.5]dec-8-yl)-4-(3,5-dichloro-benzoylamino)-5-oxo-pentanoylamino]-benzoic acid], for which the IC50 in test [1] worked out at 55 nM; in test [2] it was 443 nM.

As to `CCCCC(NC(=O)CCC(NC(=O)c1cc(Cl)cc(Cl)c1)C(=O)N1CCC2(CCCC2)CC1)C(=O)O` (centres undefined) [2-[5-(8-Aza-spiro[4.5]dec-8-yl)-4-(3,5-dichloro-benzoylamino)-5-oxo-pentanoylamino]-hexanoic acid], the IC50 in test [1] amounted to 95 nM; in test [2], 1060 nM.

For `CC(NC(=O)CCC(NC(=O)c1cc(Cl)cc(Cl)c1)C(=O)N1CCC2(CCCC2)CC1)C(=O)O` (centres undefined) [2-[5-(8-Aza-spiro[4.5]dec-8-yl)-4-(3,5-dichloro-benzoylamino)-5-oxo-pentanoylamino]-propionic acid], the IC50 in test [1] was 994 nM; in test [2] it was 1250 nM.

In the case of `O=C(O)CCC(Cc1ccccc1)NC(=O)CCC(NC(=O)c1cc(Cl)cc(Cl)c1)C(=O)N1CCC2(CCCC2)CC1` (centres undefined) [4-[5-(8-Aza-spiro[4.5]dec-8-yl)-4-(3,5-dichloro-benzoylamino)-5-oxo-pentanoylamino]-5-phenyl-pentanoic acid], the IC50 worked out at 86 nM in test [1] and 157 nM in test [2].

Take `O=C(CCC(NC(=O)c1cc(Cl)cc(Cl)c1)C(=O)N1CCC2(CCCC2)CC1)Nc1ccc(C(=O)O)cc1` (centres undefined) [4-[5-(8-Aza-spiro[4.5]dec-8-yl)-4-(3,5-dichloro-benzoylamino)-5-oxo-pentanoylamino]-benzoic acid]: the IC50 in test [1] came out at 568 nM; in test [2], 1760 nM.

Regarding `CN(C(=O)CCC(NC(=O)c1cc(Cl)cc(Cl)c1)C(=O)N1CCC2(CCCC2)CC1)c1ccc(C(=O)O)cc1` (centres undefined) [4-{[5-(8-Aza-spiro[4.5]dec-8-yl)-4-(3,5-dichloro-benzoylamino)-5-oxo-pentanoyl]-methyl-amino}-benzoic acid], the IC50 worked out at 1080 nM in test [1] and 1420 nM in test [2].

Consider `O=C(CCC(NC(=O)c1cc(Cl)cc(Cl)c1)C(=O)N1CCC2(CCCC2)CC1)N[C@H](Cc1c[nH]c2ccccc12)C(=O)O` (stereo partly drawn) [(R)-2-[5-(8-Aza-spiro[4.5]dec-8-yl)-4-(3,5-dichloro-benzoylamino)-5-oxo-pentanoylamino]-3-(1H-indol-3-yl)-propionic acid], for which the IC50 was 9 nM in test [1] and 40 nM in test [2].

`O=C(CCC(NC(=O)c1cc(Cl)cc(Cl)c1)C(=O)N1CCC2(CCCC2)CC1)N[C@H](CC1CCCCC1)C(=O)O` (stereo partly drawn) [(R)-2-[5-(8-Aza-spiro[4.5]dec-8-yl)-4-(3,5-dichloro-benzoylamino)-5-oxo-pentanoylamino]-3-cyclohexyl-propionic acid]: the IC50 is 142 nM in test [1] and 612 nM in test [2].

As to `O=C(CCC(NC(=O)c1cc(Cl)cc(Cl)c1)C(=O)N1CCC2(CCCC2)CC1)N[C@H](Cc1cccc2ccccc12)C(=O)O` (stereo partly drawn) [(R)-2-[5-(8-Aza-spiro[4.5]dec-8-yl)-4-(3,5-dichloro-benzoylamino)-5-oxo-pentanoylamino]-3-naphthalen-1-yl-propionic acid], the IC50 in test [1] came out at 9 nM; in test [2], 67 nM.

With `O=C(CCC(NC(=O)c1cc(Cl)cc(Cl)c1)C(=O)N1CCC2(CCCC2)CC1)N[C@H](Cc1ccc2ccccc2c1)C(=O)O` (stereo partly drawn) [(R)-2-[5-(8-Aza-spiro[4.5]dec-8-yl)-4-(3,5-dichloro-benzoylamino)-5-oxo-pentanoylamino]-3-naphthalen-2-yl-propionic acid], the IC50 in test [1] amounted to 24 nM; in test [2], 129 nM.

For the molecule `O=C(CCC(NC(=O)c1cc(Cl)cc(Cl)c1)C(=O)N1CCC2(CCCC2)CC1)N[C@H](Cc1ccccn1)C(=O)O` (stereo partly drawn) [(R)-2-[5-(8-Aza-spiro[4.5]dec-8-yl)-4-(3,5-dichloro-benzoylamino)-5-oxo-pentanoylamino]-3-pyridin-2-yl-propionic acid], the IC50 in test [1] was 307 nM; in test [2] it was 155 nM.

As to `O=C(O)C[C@@H](NC(=O)CCC(NC(=O)c1cc(Cl)cc(Cl)c1)C(=O)N1CCC2(CCCC2)CC1)C(=O)N1CCC2(CCCC2)CC1` (stereo partly drawn) [(R)-4-(8-Aza-spiro[4.5]dec-8-yl)-3-[5-(8-aza-spiro[4.5]dec-8-yl)-4-(3,5-dichloro-benzoylamino)-5-oxo-pentanoylamino]-4-oxo-butyric acid], the figures for the IC50 in test [1] and in test [2] were 200 nM and 1350 nM, respectively.

Consider `O=C(O)CC[C@@H](NC(=O)CCC(NC(=O)c1cc(Cl)cc(Cl)c1)C(=O)N1CCC2(CCCC2)CC1)C(=O)NCCCc1ccccc1` (stereo partly drawn) [(R)-4-[5-(8-Aza-spiro[4.5]dec-8-yl)-4-(3,5-dichloro-benzoylamino)-5-oxo-pentanoylamino]-4-(3-phenyl-propylcarbamoyl)-butyric acid], for which the IC50 in test [1] amounted to 117 nM; in test [2] it was 1860 nM.

On to `O=C(O)CC[C@@H](NC(=O)CCC(NC(=O)c1cc(Cl)cc(Cl)c1)C(=O)N1CCC2(CCCC2)CC1)C(=O)Nc1cccc2ccccc12` (stereo partly drawn) [(R)-4-[5-(8-Aza-spiro[4.5]dec-8-yl)-4-(3,5-dichloro-benzoylamino)-5-oxo-pentanoylamino]-4-(naphthalen-1-ylcarbamoyl)-butyric acid], for which the IC50 came to 17 nM in test [1] and 85 nM in test [2].

Consider `O=C(O)CC[C@@H](NC(=O)CCC(NC(=O)c1cc(Cl)cc(Cl)c1)C(=O)N1CCC2(CCCC2)CC1)C(=O)NCc1ccccc1` (stereo partly drawn) [(R)-4-[5-(8-Aza-spiro[4.5]dec-8-yl)-4-(3,5-dichloro-benzoylamino)-5-oxo-pentanoylamino]-4-benzylcarbamoyl-butyric acid], for which the figures for the IC50 in test [1] and in test [2] were 38 nM and 427 nM, respectively.

Regarding `O=C(O)CC[C@@H](NC(=O)CCC(NC(=O)c1cc(Cl)cc(Cl)c1)C(=O)N1CCC2(CCCC2)CC1)C(=O)NCCc1ccccc1` (stereo partly drawn) [(R)-4-[5-(8-Aza-spiro[4.5]dec-8-yl)-4-(3,5-dichloro-benzoylamino)-5-oxo-pentanoylamino]-4-phenethylcarbamoyl-butyric acid], the results for the IC50 in test [1] and in test [2] were 398 nM and 1110 nM, respectively.

As for `O=C(O)CC[C@@H](NC(=O)c1cc(Cl)cc(Cl)c1)C(=O)N1CCC2(CCCC2)CC1` [(R)-5-(8-Aza-spiro[4.5]dec-8-yl)-4-(3,5-dichloro-benzoylamino)-5-oxo-pentanoic acid], the IC50 in test [1] was determined as 1220 nM.

Source of the values: BindingDB's records for doi:10.1021/jm950372w (Rotta Research Laboratorium, 1996).
